The values below come from patent US9546362B2 (priority 2011, dated 2017).

Data set [1] concerns the target T1, CsHCS1 (Cannabis sativa, UniProt H9A1V3, DEL715-715). The experiment in a line: Carboxylic acid substrate range, luciferin/luciferase measurement of unconsumed ATP. Format: biochemical. More on the design: His8 (pHIS8/GW vector) (N); made in house; host or cells: E. coli Rosetta 2. Conditions: CsHCS1, 500 μM carboxylic acid, 50 μM ATP, 3 h at 29° C., FIG. 3A. The protocol: (§1) To test the range of carboxylic acids that CsHCS1 and CsHCS2 can activate, enzyme assays were performed with a broad range of carboxylic acids and limiting ATP. The assay conditions used were similar to Schneider K et al. (2005). A new type of peroxisomal acyl-coenzyme A synthetase from Arabidopsis thaliana has the catalytic capacity to activate biosynthetic precursors of jasmonic acid. The Journal of Biological Chemistry, 280:13962-72. […] All carboxylic acid substrates were dissolved in 2% v/v Triton™ X-100, leading to a final concentration 0.05% Triton X-100 in the assay. After reacting for 3 h at 29° C., 10 μL aliquots of the reactions were transferred to 96-well plates for a luciferin/luciferase based measurement of unconsumed ATP. The plates were analyzed with a 1420 Multilabel counter (PerkinElmer). To each well, 90 μL of a solution containing 100 mM Tris pH 7.8, 1 mM MgCl2, 2.3 μg luciferin, and 0.5 μg of luciferase was injected, and after shaking for 2 seconds the luminescence was measured for 15 seconds without a filter in place. Lower readings, compared to the reactions with no carboxylic acid substrate, indicate a higher amount of enzymatic activity and therefore substrate utilization. The results are shown in FIG. 3, wherein error bars represent the percent error of the ratio, n=3.

Data set [2] deals with T2, CsHCS2 (Cannabis sativa, UniProt A0A7J6I5X8).
Protocol: The reactions were incubated for 10 min at 40° C., terminated with 2 μL of 1 N HCl and stored on ice until analysis.
The reaction mixtures were diluted 1:100 with water and subsequently separated using a Waters Acquity UPLC system fitted with an Acquity UPLC BEH C18 column (1.7 μm particle size, 2.1×50 mm column), and analyzed by MS/MS using a Micromass Quattro Ultima triple-quadrupole mass spectrometer. The solvent system used was buffer A: 5 mM TEA and 3 mM acetic acid in water, and buffer B: 5 mM TEA and 3 mM acetic acid in 95:5 methanol:water. The mass spectrometer settings were: ESI positive mode, collision energy 27 V, cone 135 V, scanning for 866>359 transitions.
In data set [3] the test system is olivetolic acid synthesis. The experiment in a line: Coupled enzymatic assay for olivetolic acid synthesis (CsHCS2, MCS, olivetol synthase/PKS, OAS). Format: biochemical, Cannabis sativa. The following applies: 0.3 μg CsHCS2, 4 mM hexanoate, room temperature, 16 h, FIG. 4. The protocol: Eluted compounds were detected by absorbance at 263 nm and identified both by having the same retention times as isolated standards, and by their mass using a single quadrapole mass detector. […] HTAL=hexanoyltriacetic lactone, PDAL=pentyldiacetic lactone, OA=olivetolic acid, OL=olivetol.
The reaction was incubated at room temperature for 16 h, acidified and extracted in ethyl acetate. The polar fraction was recovered, evaporated to dryness and resuspended in 50 μL of methanol. An aliquot (5 μL) was analyzed by LCMS, and products were identified by their retention times and masses (see FIG. 4).

Data set [4] deals with T2, CsHCS2. The data set can be described thus: Carboxylic acid substrate range, luciferin/luciferase measurement of unconsumed ATP. The class given is biochemical. Conditions: CsHCS2, 500 μM carboxylic acid, 50 μM ATP, 3 h at 29° C., FIG. 3B. The method, then: as §1
Data set [5] relates to CC(C)(COP(=O)(O)OP(=O)(O)OC[C@H]1O[C@@H](n2cnc3c(N)ncnc32)[C@H](O)[C@@H]1OP(=O)(O)O)[C@@H](O)C(=O)NCCC(=O)NCCS. The experiment in a line: purified protein, by the assay type.
Data set [6] has as its target T1, CsHCS1. The experiment in a line: Hexanoyl-CoA synthetase activity (LC-MS/MS). The class given is biochemical. More on the design: His8 (pHIS8/GW vector) (N); made in house; host or cells: E. coli Rosetta 2.
For data set [7], the target named is T1, CsHCS1. Conditions: CsHCS1, Table 5.
Data set [8] concerns the target T2, CsHCS2. The experiment in a line: Kinetic properties, separate experiment (Table 5). Format: biochemical.
The test system of another data set is CCCCCCCCCC(=O)O. The experiment in a line: purified protein, by the assay type. Conditions: other: CsHCS1, Table 5.
The test system of data set [9] is CCCCCC(=O)O. The experiment in a line: purified protein, by the assay type. The following applies: other: CsHCS1, Table 5.
The subject of data set [10] is CCCCCC(=O)O. The experiment in a line: purified protein, by the assay type. The following applies: other: CsHCS1, substrate hexanoate; pH 9.0; 40.0 °C. The class given is biochemical, Cannabis sativa.
The target in data set [11] is T1, CsHCS1. The data set can be described thus: biochemical.

Like-named read-outs stand apart in the source and are kept apart here.

T2 sequence (A0A7J6I5X8 entry or part of it): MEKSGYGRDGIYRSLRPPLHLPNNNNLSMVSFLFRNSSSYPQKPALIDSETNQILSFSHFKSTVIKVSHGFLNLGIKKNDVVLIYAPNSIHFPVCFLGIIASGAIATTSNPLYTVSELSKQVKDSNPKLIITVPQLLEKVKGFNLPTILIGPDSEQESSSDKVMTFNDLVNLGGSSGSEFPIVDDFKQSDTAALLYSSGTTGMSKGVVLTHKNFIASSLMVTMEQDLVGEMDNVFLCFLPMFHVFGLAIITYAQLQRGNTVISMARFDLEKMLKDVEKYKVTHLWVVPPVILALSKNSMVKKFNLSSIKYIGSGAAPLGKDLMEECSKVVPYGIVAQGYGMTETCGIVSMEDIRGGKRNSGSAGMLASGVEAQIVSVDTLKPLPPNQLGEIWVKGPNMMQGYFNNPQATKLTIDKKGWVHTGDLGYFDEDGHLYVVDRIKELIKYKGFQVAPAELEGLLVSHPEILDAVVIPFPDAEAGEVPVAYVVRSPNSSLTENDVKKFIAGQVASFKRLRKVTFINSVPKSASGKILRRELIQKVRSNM

For `CCCCCCCC(=O)O` [octanoate], on CsHCS1 [1], the utilization as substrate entry is given as “utilize”. In the data set with CsHCS2 [2], “CsHCS2: Cannabis sativa hexanoyl-CoA synthetase 2, alkanoyl-CoA synthetase, SEQ ID NO: 4” gave a pH optimum of 9 and a temperature optimum of 40 °C. In addition, in data set [3], the “supply of hexanoyl-CoA for olivetolic acid synthesis” value is “capable of providing sufficient hexanoyl-CoA substrate for the synthesis of olivetolic acid”. As to `CCCCC(=O)O` [valerate], the utilization as substrate result at CsHCS1 [1] was “to a lesser extent”. Take `O=C(O)/C=C/c1ccc(O)cc1` [p-coumarate]: on CsHCS2 [4], the utilization as substrate result was “to a lesser extent”. For the molecule CsHCS2 (Cannabis sativa), the Km in data set [5] (other: CsHCS2, Table 5) is on record as 0.16 ± 0.01 μM μM. With `O=C(O)/C=C/c1ccccc1` [cinnamate], the utilization as substrate result on CsHCS2 [4] was “able to utilize”. With `[Mg+2]` [Mg^2+], the “activity with divalent cation” value at CsHCS2 [2] was “high”. Also, the “use of divalent cation” value at CsHCS1 [6] (CsHCS1, range of divalent cations tested) was “optimally used”.

`[Mn+2]` [Mn^2+]: the “activity with divalent cation” value at CsHCS2 [2] is “high”. With `CCCC(=O)O` [butanoate], the Km on CsHCS1 [7] and at CsHCS2 [8] (read-out: Km) was more than 10 mM throughout. With `[Co+2]` [Co^2+], on CsHCS2 [2], the “activity with divalent cation” value is given as “highest”.

Regarding `[Ca+2]` [Ca^2+], the “activity with divalent cation” value on CsHCS2 [2] is recorded as “to a lesser extent”.

For orientation: kcat means the maximal rate divided by the concentration of active sites. On to CsHCS1 (Cannabis sativa; DEL715-715), for which the Km in the data set with CCCCCCCCCC(=O)O came to 1.7 ± 0.2 mM mM; in data set [5] (other: CsHCS1, Table 5) it was 0.26 ± 0.05 μM μM; in the data set on CCCCCC(=O)O [9], 3.7 ± 0.7 mM mM; in the data set on CCCCCC(=O)O [10], 6.1 ± 1.0 mM. Further, the Vmax in the data set with CCCCCC(=O)O [10] is on record as 15.6±1.7 pKat. Further, the kcat with CCCCCC(=O)O [10] is 4.5 s⁻¹. As usually defined, the Ki is the dissociation constant of the complex between target and ligand, obtained from inhibition or displacement. At CsHCS1 [11], `CC(C)(COP(=O)(O)OP(=O)(O)OC[C@H]1O[C@@H](n2cnc3c(N)ncnc32)[C@H](O)[C@@H]1OP(=O)(O)O)[C@@H](O)C(=O)NCCC(=O)NCCS` [CoA, coenzyme A] displayed a Ki of 5100 ± 1800 µM. The “inhibition of CsHCS2” value at CsHCS2 [8] was “did not inhibit”.

`CCCCCCCCCC(=O)O` [decanoate] gave a Ki at CsHCS2 [8] of 121 ± 47.9 µM. Besides, the Km on CsHCS2 [8] (CsHCS2, Table 5) turned out to be 0.0161 ± 0.0058 mM.

B1: CsHCS1: Cannabis sativa hexanoyl-CoA synthetase 1, alkanoyl-CoA synthetase, SEQ ID NO: 2 (protein, listed as Cannabis sativa)
chain: MGKNYKSLDSVVASDFIALGITSEVAETLHGRLAEIVCNYGAATPQTWINIANHILSPDLPFSLHQMLFYGCYKDFGPAPPAWIPDPEKVKSTNLGALLEKRGKEFLGVKYKDPISSFSHFQEFSVRNPEVYWRTVLMDEMKISFSKDPECILRRDDINNPGGSEWLPGGYLNSAKNCLNVNSNKKLNDTMIVWRDEGNDDLPLNKLTLDQLRKRVWLVGYALEEMGLEKGCAIAIDMPMHVDAVVIYLAIVLAGYVVVSIADSFSAPEISTRLRLSKAKAIFTQDHIIRGKKRIPLYSRVVEAKSPMAIVIPCSGSNIGAELRDGDISWDYFLERAKEFKNCEFTAREQPVDAYTNILFSSGTTGEPKAIPWTQATPLKAAADGWSHLDIRKGDVIVWPTNLGWMMGPWLVYASLLNGASIALYNGSPLVSGFAKFVQDAKVTMLGVVPSIVRSWKSTNCVSGYDWSTIRCFSSSGEASNVDEYLWLMGRANYKPVIEMCGGTEIGGAFSAGSFLQAQSLSSFSSQCMGCTLYILDKNGYPMPKNKPGIGELALGPVMFGASKTLLNGNHHDVYFKGMPTLNGEVLRRHGDIFELTSNGYYHAHGRADDTMNIGGIKISSIEIERVCNEVDDRVFETTAIGVPPLGGGPEQLVIFFVLKDSNDTTIDLNQLRLSFNLGLQKKLNPLFKVTRVVPLSSLPRTATNKIMRRVLRQFSHFE
Turning to B1, in the data set with CsHCS1 [6] (enzyme CsHCS1), the pH optimum turned out to be 9 and the temperature optimum was found to be 40 °C.
